Measurements from patent publication US20240117431A1, “STEM-CELL BASED BIOMARKER DISCOVERY” (THE REGENTS OF THE UNIVERSITY OF CALIFORNIA, priority 2020, published 2024).

Columns and labels:
[1] = test system: co-culture of mCherry HEK cells and GFP-TgUPRT variant HEK cells; assay: Co-culture specificity, dot blot of biotinylated total RNA (CuAAC or IEDDA); type: cell-based; settings: 5 hours
Procedure: Co-culture of HEK cells containing GFP or mCherry expression plasmids: HEK293 (5×105) cells seeded in 6-well plate. Thirty-six hour post seeding, HEK cells were transfected with 1 μg of single plasmid containing EGFP, mCherry, EGFP-TgUPRT-WT, or EGFP-TgUPRT-Mut. Twenty-four hour post transfection, transiently transfected HEK cells were trypsinized and seeded into a 5 cm plate. Equal amounts of cells (approximately 2×106 in total) where 1×10^6 cells containing GFP or GFP-TgUPRT plasmids and 1×10^6 cells containing mCherry construct) were co-cultured. Three co-culture conditions are Condition (A): mCherry and EGFP, Condition (B): mCherry and EGFP-WT-TgUPRT, and Condition (C): mCherry and EGFP-3×MT-TgUPRT (pKN-CMV-EGFP-TgUPRT-Mut16 or -Mut17). Sixteen hours post seeding, the co-cultures were treated with 5EU and 5VU for 5 hours at 200 μM and 500 μM final concentration, respectively. Cell imaging was performed to assess the overall distribution of green and red cells in each co-culture. Once imaging was done, cells were harvested and subjected to RNA isolation. Total RNA isolated from the co-culture was subjected to biotinylation by two click methods: (1) CuAAC to assess 5EU incorporation in RNA and (2) IEDDA to assess 5VU incorporation in RNA. Subsequently, biotinylated RNA was subjected to dot blot analysis. […]

mutants TgUPRT = assay: Phosphoribosyltransferase activity with recombinant TgUPRT mutants; type: biochemical, Toxoplasma gondii; settings: five recombinant TgUPRT mutants, FIG. 9A
Procedure: Enzyme activity assay: The standard activity assay was performed by incubating 10 μL of free extract or 0.5 μg of pure His-tag enzyme with 1 mM Phosphoribosyl pyrophosphate (PRPP), 1 mM uracil, 5 mM MgCl2 in 50 mM PBS buffer pH 7.4 in a final volume of 80 μL. The reaction mixture was incubated at 37° C. for 2-5 min (300 rpm). Enzyme was inactivated by adding 80 μL of cold methanol in ice-bath and heating for 5 min at 100° C. After centrifugation at 9000×g for 5 min, samples were half-diluted with water and the NMP production was analysed by HPLC to quantitatively measure the reaction products as described below in the analytical methods. All determinations were carried out in triplicate assuming Michaelis-Menten conditions, and the maximum error was below 5%. In such conditions, one international activity unit (IU) was defined as the amount of enzyme producing 1 μmol/min of UMP under the assay conditions.
Substrate specificity studies Enzymatic synthesis of the different pyrimidine nucleoside monophosphate (NMP) derivatives was carried out by incubating 0.5 μg of pure His-tag enzyme with 1 mM PRPP, 1 mM pyrimidine base and 5 mM MgCl2 in 50 mM PBS buffer pH 7.4 (1.6-3.2% v/v DSMO). The experiments were performed according to the standard assay. Subsequently, the reaction mixture was processed as described above and the NMP production was analyzed by HPLC.
Analytical methods: The production of NMPs was quantitatively measured with an ACE EXCEL 5 μm CN-ES 250×4.6 mm equilibrated with 100% trimethyl ammonium acetate at a flow rate of 0.8 mL/min. Retention times for the reference bases and NMPs (hereafter abbreviated according to the recommendations of the IUPAC-IUB Commission on Biochemical Nomenclature) were as follows: uracil (Ura), 4.7 min; 5-azido uracil (5-AUra). […]
Following these exciting observations, a more quantitative approach to examined for differences between enzyme mutants and their enzyme kinetics with the analogs. […] Each purified enzyme was incubated with the different substrates and phosphoribosyltransferase activity was measured (FIG. 9A).

Structure (SMILES)	incorporation into RNA mediated by GFP-3×MT-TgUPRT (co-culture dot blot) ([1]; 500 μM 5VU with 200 μM 5EU)	reactivity with the mutants (phosphoribosyltransferase activity) (mutants TgUPRT)	incorporation into RNA in the absence of TgUPRT (co-culture dot blot) ([1]; 200 μM 5EU with 500 μM 5VU)
C=Cc1c[nH]c(=O)[nH]c1=O [compound 2, 5-Vinylpyrimidine-2,4(1H,3H)-dione]	substantially	increased dramatically	
C#Cc1c[nH]c(=O)[nH]c1=O [compound 1, 5-ethynylpyrimidine-2,4(1H,3H)-dione]		10 IU/mg	detectable signal
